From PubChem BioAssay (NCI)
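Where inhibition never reached the appropriate level, the endpoint shown equals the highest concentration tested. Otherwise, values were interpolated linearly from a five-concentration, 48-hour dose response in 96-well plates. At the TGI there is no net growth.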

How the values were obtained:
Assay in all cases: inhibition of tumour cell growth, NCI panel, 48 h
[1] = tested on: SN12C renal
[2] = tested on: HOP-62 NSCLC
[3] = tested on: HT29 colon
[4] = tested on: LOX IMVI melanoma
[5] = tested on: SNB-19 CNS
[6] = tested on: SK-OV-3 ovarian
[7] = tested on: TK-10 renal
[8] = tested on: IGROV1 ovarian
[9] = tested on: MDA-N
[10] = tested on: RXF 393 renal
[11] = tested on: M14 melanoma

Compound | TGI [1] [µM] | TGI [2] [µM] | TGI [3] [µM] | TGI [4] [µM] | TGI [5] [µM] | TGI [6] [µM] | TGI [7] [µM] | TGI [8] [µM] | TGI [9] [µM] | TGI [10] [µM] | TGI [11] [µM]
CCCCCCCCCC(=O)N[C@@H](c1ccco1)[C@@H](O)C(=O)O[C@H]1C[C@@]2(O)[C@@H](OC(=O)c3ccccc3)[C@@H]3[C@]4(OC(C)=O)CO[C@@H]4C[C@H](O)[C@@]3(C)C(=O)[C@H](OC(C)=O)C(=C1C)C2(C)C | 11.4 | 1.68 | 7.1 | 7.74 | > 30.5 | > 18.7 | 9.22 | 16.1 | 0.00909 | 0.898 | –
Cc1ccc(S(=O)(=O)NC(=O)NC(CCCCN=C(N)N)C(=O)O)cc1 (centres undefined) | > 100 | > 100 | – | > 100 | > 100 | > 100 | > 100 | > 100 | > 100 | > 100 | > 100
O=c1[nH]c(=O)n(COCCO)c2ccsc12 | > 100 | > 100 | > 100 | > 100 | > 100 | – | > 100 | > 100 | > 100 | > 100 | > 100
O=CC(O)C(O)C(O)C1CNC(=S)O1 (centres undefined) | > 100 | > 100 | > 100 | > 100 | – | > 100 | > 100 | > 100 | > 100 | > 100 | > 100
COC(=O)c1c(C)cccc1C1CN=NC12Cc1ccc(C)c(C)c1C2=O (centres undefined) | > 100 | > 100 | > 100 | > 100 | > 100 | – | > 100 | > 100 | > 100 | > 100 | 96.2
CCOC(=O)NNC(=O)NCc1ccccc1CNC(=O)NNC(=O)OCC | > 100 | – | > 100 | > 100 | > 100 | > 100 | > 100 | > 100 | > 100 | > 100 | > 100
O=C1CC(C(OCc2ccccc2)C(OCc2ccccc2)C(COCc2ccccc2)OCc2ccccc2)CC(=O)N1 (centres undefined) | > 100 | – | > 75 | > 100 | > 100 | – | > 100 | > 100 | > 100 | > 100 | > 100
COC(=O)NNC(c1ccc(Cl)cc1)c1ccc(Cl)cc1 | 35.2 | – | 34.2 | 32 | 41.1 | 58.6 | 33.6 | 34 | 45.6 | 23.7 | 31.9
O=S(=O)(c1ccc(-c2nnc(-c3ccc(F)cc3)o2)cc1)c1ccc(-c2nnc(-c3ccc(F)cc3)o2)cc1 | > 100 | > 100 | > 100 | > 100 | > 100 | 90.3 | – | > 100 | > 100 | 77.7 | > 100
CCOc1ccc(N=NC2C(=O)N(C(=O)CC(=O)Nc3ccccc3)N=C2C)cc1 (centres undefined) | > 100 | > 100 | > 100 | > 100 | > 100 | – | > 100 | > 100 | 21.5 | > 100 | > 100
O=[N+]([O-])c1ccc2oc(=Nc3ccccc3)c(Nc3ccccc3)nc2c1 | > 100 | > 100 | > 100 | > 100 | > 100 | > 100 | > 100 | > 100 | > 100 | > 100 | –
N=C(N)SCCC(=O)CCSC(=N)N | > 100 | – | > 100 | > 100 | > 100 | > 100 | > 100 | – | > 100 | > 100 | > 100
CC1(C)C(CCO)CC1n1ccc(=O)[nH]c1=O (centres undefined) | > 100 | > 100 | – | > 100 | > 100 | > 100 | > 100 | – | > 100 | > 100 | > 100
CN(C)c1ccc(/C=C/C(=O)N[C@@H]2C(=O)N3[C@@H]2SC(C)(C)[C@@H]3C(=O)O)cc1 | > 100 | > 100 | > 100 | > 100 | > 100 | – | > 100 | – | > 100 | > 100 | > 100
CN(C(=O)c1ccc2c(c1)sc1c(=O)n(C)c3ccccc3c12)c1ccccc1 | > 100 | – | > 100 | > 100 | > 100 | > 100 | > 100 | > 100 | > 100 | > 100 | > 100
Nc1nccc(NCC2(CO)CCC2)n1 | > 100 | > 100 | > 100 | > 100 | – | – | 77.4 | > 100 | > 100 | > 100 | –
CCOC(=O)C(NC(=O)CC)(Nc1ccc(S(=O)(=O)Nc2onc(C)c2C)cc1)C(F)(F)F (centres undefined) | > 100 | > 100 | > 100 | > 100 | > 100 | > 100 | – | > 100 | > 100 | > 100 | > 100
